Laboratory results from patent US20220324835A1 (Nurix Therapeutics, Inc., priority 2018, published 2022).

Key:
T-cell [1] = assay: IL-2 secretion from T-cells co-stimulated with anti-CD3 and anti-CD28 antibody (Biological Example 2); format: cell-based, human; conditions: Homo sapiens, T-cell, read-out: IL-2 secretion Anti-CD3/Anti-CD28 stimulation; for fold induction at 0.3 µM: 0.3 μM Cbl-b inhibitor; for fold induction at 1 µM: 1 μM Cbl-b inhibitor
Method in brief: (§1)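 Values are fold-change over baseline: readings (IL-2 release, CD25 staining) from inhibitor-treated T-cells divided against untreated cells […]. No detailed procedure stated.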

Cbl-b [2] = biological target: T1, Cbl-b (Homo sapiens, UniProt Q13191); assay: Cbl-b activity assay (Cbl-b inhibition assay), TR-FRET of Cbl-b interaction with UbcH5B-Ub; format: biochemical; conditions: assay buffer with 100 mM NaCl, 60 nM Src kinase; read-out: Cbl-b activity IC50
T1 sequence (Q13191 36-427): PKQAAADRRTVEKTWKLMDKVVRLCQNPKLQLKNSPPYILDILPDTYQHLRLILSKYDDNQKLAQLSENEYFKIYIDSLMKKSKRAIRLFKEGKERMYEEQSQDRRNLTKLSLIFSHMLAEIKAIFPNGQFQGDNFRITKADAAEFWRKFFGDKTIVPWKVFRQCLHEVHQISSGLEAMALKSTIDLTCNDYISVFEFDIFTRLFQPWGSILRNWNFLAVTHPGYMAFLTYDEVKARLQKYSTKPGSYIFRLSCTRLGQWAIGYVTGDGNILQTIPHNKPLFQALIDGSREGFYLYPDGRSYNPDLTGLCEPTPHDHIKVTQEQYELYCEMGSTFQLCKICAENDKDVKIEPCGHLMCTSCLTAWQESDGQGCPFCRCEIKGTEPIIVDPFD
Method in brief: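 Compound-treated Cbl-b was incubated 1.5 h with Src kinase (60 nM final; 30 nM for asterisked values, which also used 50 mM instead of 100 mM NaCl), 1 mM ATP and 5 mM MgCl2. Binding to fluorescent Ub-loaded UbcH5B (C85K mutant) was then read by TR-FRET after 1 h more.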

T-cell [3] = assay: CD25 cell surface staining on T-cells co-stimulated with anti-CD3 and anti-CD28 antibody (Biological Example 2); format: cell-based, human; conditions: Homo sapiens, T-cell, read-out: CD25 staining Anti-CD3/Anti-CD28 stimulation; for fold induction at 0.3 µM: 0.3 μM Cbl-b inhibitor; for fold induction at 1 µM: 1 μM Cbl-b inhibitor
Method in brief: as §1

T-cell [4] = assay: CD25 cell surface staining on T-cells stimulated with anti-CD3 antibody alone (Biological Example 2); format: cell-based, human; conditions: T-cell, read-out: CD25 staining Anti-CD3 stimulation; for fold induction at 1 µM: 1 μM Cbl-b inhibitor
T-cell [5] = assay: IL-2 secretion from T-cells stimulated with anti-CD3 antibody alone (Biological Example 2); format: cell-based, human; conditions: T-cell, read-out: IL-2 secretion Anti-CD3 stimulation; for fold induction at 1 µM: 1 μM Cbl-b inhibitor
Cbl-b [6] = biological target: T1, Cbl-b; assay: Cbl-b inhibition assay (Cbl-b activity assay, FRET, Biological Example 1; 100 mM NaCl, 60 nM Src kinase); format: biochemical; conditions: upper bound stated in text lists; read-out: IC50 values in the Cbl-b inhibition assay of Biological Example 1
Method in brief: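 Inhibitor activity is measured as reduced terbium-to-fluorescein FRET between streptavidin-terbium on biotinylated Cbl-b and Bodipy-fluorescein ubiquitin carried by an irreversible UbcH5B-Ub conjugate, binding of which depends on Src phosphorylation of Cbl-b.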

[7] = fold change over baseline (anti-CD3/anti-CD28 stimulated T-cells without inhibitor)
[8] = Homo sapiens, fold change over baseline (anti-CD3/anti-CD28 stimulated T-cells without inhibitor)
[9] = fold change over baseline, primary human total T-cells
[10] = fold change over baseline, 4 μM Cbl-b inhibitor, primary human total T-cells
[11] = fold change over baseline, 8 μM Cbl-b inhibitor, primary human total T-cells

Row | Compound | fold induction at 0.3 µM (T-cell [1]; [7]) | fold induction at 1 µM (T-cell [1]; [7]) | IC50 (Cbl-b [2]) [nM] | fold induction at 0.3 µM (T-cell [3]; [7]) | fold induction at 1 µM (T-cell [3]; [7]) | fold induction at 1 µM (T-cell [4]; [8]) | fold induction at 1 µM (T-cell [5]; [8]) | IC50 (Cbl-b [6]) [nM] | fold induction at 0.3 µM (T-cell [1]; [9]) | fold induction at 1 µM (T-cell [1]; [9]) | fold induction at 4 µM (T-cell [1]; [10]) | fold induction at 0.3 µM (T-cell [3]; [9]) | fold induction at 1 µM (T-cell [3]; [9]) | fold induction at 4 µM (T-cell [3]; [10]) | fold induction at 1 µM (T-cell [4]; [9]) | fold induction at 8 µM (T-cell [4]; [11]) | fold induction at 1 µM (T-cell [5]; [9]) | fold induction at 8 µM (T-cell [5]; [11])
1 | Cn1cnnc1CC1(c2cccc(N3Cc4c(cc(CN5CC[C@H](F)C5)nc4C4CC4)C3=O)c2)COC1 [Example 578, (S)-4-cyclopropyl-6-((3-fluoropyrrolidin-1-yl)methyl)-2-(3-(3-((4-methyl-4H-1,2,4-triazol-3-yl)methyl)oxetan-3-yl)phenyl)-2,3-dihydro-1H-pyrrolo[3,4-c]pyridin-1-one] | 2.51 to 5 | 5 to 7.5 | < 100 | 1.01 to 1.3 | 1.01 to 1.3 | 0.801 to 1 | 0.051 to 0.1 | ≤ 100 | – | – | – | – | – | – | – | – | – | –
2 | CC(c1cc2c(c(C3CC3)n1)CN(c1cccc(C3(Cc4nncn4C)COC3)c1)C2=O)N1CCC2(CC2)C1 (stereo not shown) [Example 585, 6-(1-(5-Azaspiro[2.4]heptan-5-yl)ethyl)-4-cyclopropyl-2-(3-(3-((4-methyl-4H-1,2,4-triazol-3-yl)methyl)oxetan-3-yl)phenyl)-2,3-dihydro-1H-pyrrolo[3,4-c]pyridin-1-one] | 2.51 to 5 | 5 to 7.5 | < 100 | 1.01 to 1.3 | 1.01 to 1.3 | 0.801 to 1 | 0.051 to 0.1 | ≤ 100 | – | – | – | – | – | – | – | – | – | –
3 | COC1CCCN(Cc2cc3c(c(C(F)(F)F)c2)CN(c2cccc(C4(Cc5nncn5C)COC4)c2)C3=O)C1 (stereo not shown) [Example 637, 6-((3-methoxypiperidin-1-yl)methyl)-2-(3-(3-((4-methyl-4H-1,2,4-triazol-3-yl)methyl)oxetan-3-yl)phenyl)-4-(trifluoromethyl)isoindolin-1-one] | > 7.5 | > 7.5 | < 100 | 1.31 to 1.5 | 1.51 to 1.75 | > 1 | > 0.201 | ≤ 100 | – | – | – | – | – | – | – | – | – | –
4 | C[C@H]1CN(Cc2cc3c(c(C(F)(F)F)c2)CN(c2cccc(C4(Cc5nncn5C)COC4)c2)C3=O)CCO1 [Example 663a, (S)-2-(3-(3-((4-methyl-4H-1,2,4-triazol-3-yl)methyl)oxetan-3-yl)phenyl)-6-((2-methylmorpholino)methyl)-4-(trifluoromethyl)isoindolin-1-one] | 5 to 7.5 | > 7.5 | < 100 | 1.31 to 1.5 | 1.31 to 1.5 | > 1 | > 0.201 | ≤ 100 | – | – | – | – | – | – | – | – | – | –
5 | C[C@H](Cc1nncn1C)c1cccc(N2Cc3c(cc(C4CC4)cc3C(F)(F)F)C2=O)c1 [Compound 260, (R)-6-cyclopropyl-2-(3-(1-(4-methyl-4H-1,2,4-triazol-3-yl)propan-2-yl)phenyl)-4-(trifluoromethyl)isoindolin-1-one] | – | – | < 100 | – | – | – | – | ≤ 100 | 1.01 to 2.5 | 1.01 to 2.5 | 2.51 to 5 | 1.01 to 1.3 | 1.01 to 1.3 | 1.31 to 1.5 | 0.801 to 1 | > 1 | > 0.201 | > 0.201
6 | Cn1cnnc1OC1(c2cccc(N3Cc4c(cc(CN5CCC(F)CC5)cc4C(F)(F)F)C3=O)c2)COC1 [Example 700, 6-((4-fluoropiperidin-1-yl)methyl)-2-(3-(3-((4-methyl-4H-1,2,4-triazol-3-yl)oxy)oxetan-3-yl)phenyl)-4-(trifluoromethyl)isoindolin-1-one] | 1.01 to 2.5 | 2.51 to 5 | 100 to 300 | 1.01 to 1.3 | 1.31 to 1.5 | 0.601 to 0.8 | < 0.05 | ≤ 300 | – | – | – | – | – | – | – | – | – | –
